A short description of series [1]: Transferability into brain and clearance (2), Example I-30. Type of series: in vivo, male Wistar rats. The note with it: rats, intravenous injection, Table 1-10.
Procedure: 0.05 mL each of these solutions was injected under thiopental anesthesia into the tail vein of respective Wistar rats (7-week old). The rats were sacrificed by bleeding from abdominal artery, and brains were removed and subjected to measurement of mass of brains and further subjected to measurement of radioactivity (hereinafter referred to as A in this Example) with a single channel analyzer (detector type: SP-20 manufactured by OHYO KOKEN KOGYO Co., Ltd.) 2, 5, 30 and 60 minutes after the injection. Also, radioactivity (hereinafter referred to as B in this Example) of the rest of the whole body was measured in the same manner as above. Using these measurement results, radioactive distribution per unit weight of brain (% ID/g) at the respective time points were calculated in accordance with the following formula (1-7).
Three animals were used for experiment at the respective time points.
The nature of series [2]: Partition coefficient based on the octanol extraction method, Example I-29. To be noted: octanol / 10 mmol/L phosphate buffer (pH 7.4); Table I-9. Type of series: physicochemical. Here is the method: To 2 mL of octanol, 10 μL each of the prepared sample solutions was added, and 2 mL of a 10 mmol/L phosphate buffer (pH 7.4) was further added, followed by stirring for 30 seconds.

The nature of series [3]: Partition coefficient based on the octanol extraction method, Examples I-13 to I-14. Type of series: physicochemical. To be noted: octanol / 10 mmol/L phosphate buffer (pH 7.4); Table 1-4.
Procedure: After the mixture was centrifuged with a low-speed centrifuge (2000 rpm×60 min.), the octanol layer and the water layer were sampled each in an amount of 1 mL, and subjected to measurement of radioactivity count with an autowell gamma system (manufactured by Aloka, Type: ARC-301B). Using the obtained radioactivity count, log Poctanol was calculated in accordance with the equation (1-2).
Series [4] in a line: Transferability into brain and clearance, Examples II-22 to II-23. The note with it: rats, intravenous injection, Table 2-7. Type of series: in vivo, male Wistar rats.
Procedure: 0.05 mL each of the prepared sample solutions was injected under thiopental anesthesia into the tail vein of the respective Wistar rat (7-week old). The rats were sacrificed by bleeding from abdominal artery, and brains were removed and subjected to measurement of mass of brains and further subjected to measurement of radioactivity (hereinafter referred to as A in this Example) with a single channel analyzer (detector type SP-20 manufactured by OHYO KOKEN KOGYO Co., Ltd.) 2, 5, 30, and 60 minutes after the injection. Further, the radioactivity level of the rest of the whole body was measured in the same manner as above (hereinafter referred to as B in this Example). Using these measurement results, radioactive distribution per unit weight of brain (% ID/g) at the respective time points were calculated in accordance with the following formula (2-5).
(§1) Three animals were used for the experiment at the respective time points.
The nature of series [5]: Partition coefficient based on the octanol extraction method, Examples II-8 to II-9. Type of series: physicochemical. To be noted: octanol / 10 mmol/L phosphate buffer (pH 7.4); Table 2-4.
Procedure: To 2 mL of octanol, 10 μL each of the prepared sample solutions was added, 2 mL of 10 mmol/L phosphate buffer (pH 7.4) was added, followed by stirring for 30 seconds. After the mixture was centrifuged with a low-speed centrifuge (2000 rpm×60 min.), the octanol layer and the water layer were sampled each in an amount of 1 mL, and subjected to measurement of radioactivity count with an autowell gamma system (Type: ARC-301B, manufactured by Aloka). Using the obtained radioactivity count, log Poctanol was calculated in accordance with the equation (2-2).
Series [6] relates to intracerebral amyloid (aggregated Aβ1-40 injected into amygdaloid nucleus). The series can be described thus: Ex vivo autoradiogram of 123I-IMPY using rats of amyloid injected model, Comparative Example II-6. Type of series: in vivo, male Wistar rat. To be noted: autoradiogram, 60 minutes after tail vein injection.
Procedure: (§2) (1) Aβ1-40 (manufactured by Peptide Institute, INC.) was dissolved in phosphate buffer (pH 7.4) and shaken at 37° C. for 72 hours, to obtain 1 mg/mL of a suspension of aggregated Aβ (hereinafter referred to as amyloid suspension in this Example).
(§3) (2) 2.5 μL (corresponding to 25 μg) of the amyloid suspension was injected into an amygdaloid nucleus on one side of a male Wistar rat (7-week old). As a control, 2.5 μL of a phosphate buffered physiological saline solution (pH 7.4) was injected into an amygdaloid nucleus on the other side of the rat. The rats were examined 1 day after the injection of the amyloid suspension and the phosphate buffered physiological saline solution (pH 7.4).
(§4) This solution was injected under thiopental anesthesia into the rat through the tail vein (dosage: 0.5 mL, dosed radioactivity: 14.5 MBq equivalent).
(§5) (4) Brain was removed 60 minutes after the injection to prepare a brain slice of 10 μm in thickness with a microtome (type: CM3050S, manufactured by LEICA). The brain slice was exposed to an imaging plate for 20 hours, and then image analysis was carried out by use of a Bio-imaging Analyzer (type: BAS-2500; manufactured by FUJIFILM Corporation).
Series [7] deals with T1, intracerebral amyloid (aggregated Aβ1-40 injected into amygdaloid nucleus) (Homo sapiens, UniProt P05067).
T1 construct: Aβ1-40 (Peptide Institute, INC.) was dissolved in phosphate buffer (pH 7.4); purchased Peptide Institute, INC
The series is described as above. The note with it: brain slice 60 minutes after tail vein injection. It counts as in vivo, male Wistar rat.
Procedure: as §2, §3, §4, §5

Series [8] in a line: Partition coefficient based on the octanol extraction method, Examples II-20 to II-21. Type of series: physicochemical. To be noted: octanol / 10 mmol/L phosphate buffer (pH 7.4); Table 2-6.
Procedure: To 2 mL of octanol, 10 μL each of the prepared sample solution was added, and 2 mL of 10 mmol/L phosphate buffer (pH 7.4) was further added, followed by stirring for 30 seconds. After the mixture was centrifuged with a low-speed centrifuge (2000 rpm×60 min.), the octanol layer and the water layer were sampled each in an amount of 1 mL, and subjected to measurement of radioactivity count with an autowell gamma system (Type: ARC-301B, manufactured by Aloka). Using the obtained radioactivity count, log Poctanol was calculated in accordance with the equation (2-4).
Series [9] is described as follows: Transferability into brain and clearance, Examples I-20 to I-21. Type of series: in vivo, male Wistar rats. The note with it: rats, intravenous injection, Table 1-7. An excerpt:
Three animals were used for Experiment I-20 and Comparative Experiment I-9, and two animals were used for Experiment I-21 at the respective time points.

Series [10] is described as follows: Transferability into brain and clearance, Examples II-10 to II-11. Type of series: in vivo, male Wistar rats. To be noted: rats, intravenous injection, Table 2-5.
Procedure: 0.05 mL each of the prepared sample solutions was injected under thiopental anesthesia into the tail vein of the rats. The rats were sacrificed by bleeding from abdominal artery, and brains were removed and subjected to measurement of mass of brains and further subjected to measurement of radioactivity (hereinafter referred to as A in this Example) with a single channel analyzer (detector type SP-20 manufactured by OHYO KOKEN KOGYO Co., Ltd.) 2, 5, 30, and 60 minutes after the injection. Further, the radioactivity level of the rest of the whole body was measured in the same manner as above (hereinafter referred to as B in this Example). Using these measurement results, radioactive distribution per unit weight of brain (% ID/g) at the respective time points were calculated in accordance with the following formula (2-3).
as §1

T1 sequence (P05067 672-711): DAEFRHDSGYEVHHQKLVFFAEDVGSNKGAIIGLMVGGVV

Consider `CN(C)c1ccc(-c2cn3cc([123I])ccc3n2)cc1` [[^123I]-IMPY, reference compound], for which the “Radioactive distribution in brain per unit weight, After 2 min.” value stood at 1.19 % ID/g in [1] (2 min.), 1.19 % ID/g in [4] (2 min.), 1.02 % ID/g in series [9] (2 min.) and 1.19 % ID/g in series [10] (2 min.). Also, the “Radioactive distribution in brain per unit weight, After 5 min.” value is reported as 0.97 % ID/g in series [1] (5 min.), 0.97 % ID/g in series [4] (5 min.), 0.99 % ID/g in [9] (5 min.) and 0.97 % ID/g in series [10] (5 min.). Also, the “Radioactive distribution in brain per unit weight, After 30 min.” value in series [1] (30 min.) is 0.23 % ID/g; in series [4] (30 min.), 0.23 % ID/g; in series [9] (30 min.) it was 0.20 % ID/g; in [10] (30 min.), 0.23 % ID/g. Besides, the “Radioactive distribution in brain per unit weight, After 60 min.” value in [1] (60 min.) is on record as 0.09 % ID/g; in [4] (60 min.) it was 0.09 % ID/g; in [9] (60 min.) it was 0.08 % ID/g; in series [10] (60 min.), 0.09 % ID/g. For the same compound, the logPoctanol value is recorded as 2.1 in series [2], 2.1 in series [3], 1.9 in [5] and 2.1 in [8]. For the same compound, in series [6], the “accumulation of radioactivity where amyloid was not injected (white matter)” value was “non-specific accumulation was observed in white matter”. Besides, the “accumulation of radioactivity in amygdaloid nucleus on the side to which the amyloid suspension was injected” value in [7] was “marked accumulation of radioactivity”.

(Values after US8506930B2, “Compounds having affinity for amyloid” (Nihon Medi-Physics Co., Ltd., priority 2006, dated 2013).)
